According to patent US11976300B2, “Use of water-soluble realgar solid dispersion in preparation of erythroid differentiation inducer for bone marrow hematopoietic stem cells and/or bone marrow hematopoietic progenitor cells” (Institute of Basic Medical Sciences Chinese Academy of …, priority 2018, dated 2024):

Test: Evaluation of water solubility (appearance of water dispersion)
Assay type: physicochemical
Conditions: 1.500 g e-As4S4 of Embodiment 5 or 100 mg r-As4S4 powder in 10 mL ddH2O; FIG. 1
Procedure: 1.500 grams of e-As4S4 of Embodiment 5 and 100 mg of the r-As4S4 powder were weighed and added in 10 mL of double distilled water (ddH2O), respectively to obtain the water dispersion solution of e-As4S4 and r-As4S4.

## S1[As]2S[As]3S[As]2S[As]13 [r-As4S4, As4S4]
  dissolution in ddH2O (appearance of the suspension): hardly to dissolve in water
